From the supplement of paper PMC10307832

Assays:
Test in all cases: relative viability (nuclei count vs DMSO), 5 days (fraction); higher = more cells survive
[1] = compound: O=C(O)c1ccc2c(c1)nc(Nc1cccc(Cl)c1)c1ccncc12 [Silmitasertib] + CS(=O)(=O)CCNCc1ccc(-c2ccc3ncnc(Nc4ccc(OCc5cccc(F)c5)c(Cl)c4)c3c2)o1 [Lapatinib] (partner 2 µM)
Method in brief: (§1)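 Each reported value is a median over duplicate plates. It expresses relative viability: treated-well nuclei count divided by vehicle-well nuclei count. Lung cancer cell lines in 1536-well plates were dosed by pin tool a day after seeding, alone with one drug or with a fixed anchor-drug dose plus five library-drug doses (not always all listed) in √10 steps, and nuclei were counted after 5 days.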

[2] = compound: O=C(O)c1ccc2c(c1)nc(Nc1cccc(Cl)c1)c1ccncc12 [Silmitasertib] + CS(=O)(=O)N1CCN(Cc2cc3nc(-c4cccc5[nH]ncc45)nc(N4CCOCC4)c3s2)CC1 [Pictilisib] (partner 1 µM)
Method in brief: as §1

[3] = compound: O=C(O)c1ccc2c(c1)nc(Nc1cccc(Cl)c1)c1ccncc12 [Silmitasertib] + Cc1nc(NC(=O)N2CCC[C@H]2C(N)=O)sc1-c1ccnc(C(C)(C)C(F)(F)F)c1 [Alpelisib] (partner 2 µM)
Method in brief: as §1

[4] = compound: O=C(O)c1ccc2c(c1)nc(Nc1cccc(Cl)c1)c1ccncc12 [Silmitasertib] + Cc1nc(Nc2ncc(C(=O)Nc3c(C)cccc3Cl)s2)cc(N2CCN(CCO)CC2)n1 [Dasatinib] (partner 0.075 µM)
Method in brief: as §1

[5] = compound: O=C(O)c1ccc2c(c1)nc(Nc1cccc(Cl)c1)c1ccncc12 [Silmitasertib] + N=C(N)NC(=N)NCCc1ccccc1 [Phenformin] (partner 250 µM)
Method in brief: as §1

Cell Line	relative viability ([1]; first compound 0.04 µM)	relative viability ([1]; first compound 0.4 µM)	relative viability ([1]; first compound 1.265 µM)	relative viability ([1]; first compound 4 µM)	relative viability ([2]; first compound 0.04 µM)	relative viability ([2]; first compound 0.4 µM)	relative viability ([2]; first compound 1.265 µM)	relative viability ([2]; first compound 4 µM)	relative viability ([3]; first compound 0.04 µM)	relative viability ([3]; first compound 0.4 µM)	relative viability ([3]; first compound 1.265 µM)	relative viability ([3]; first compound 4 µM)	relative viability ([4]; first compound 0.04 µM)	relative viability ([4]; first compound 0.4 µM)	relative viability ([4]; first compound 1.265 µM)	relative viability ([4]; first compound 4 µM)	relative viability ([5]; first compound 0.04 µM)	relative viability ([5]; first compound 0.4 µM)	relative viability ([5]; first compound 1.265 µM)	relative viability ([5]; first compound 4 µM)
201T	1.04	1.04	1.06	1.14	0.739	0.665	0.68	0.694	0.908	1	1.01	1.13	0.533	0.593	0.522	0.612	0.421	0.426	0.469	0.449
A549	1.23	1.08	0.781	0.736	0.582	0.566	0.497	0.513	1.02	0.918	0.828	0.869					0.237	0.131	0.121	0.161
A-427	1.06		1.24	0.573	0.858		0.521	0.238	1.07		1.28	1.05	0.724		0.858	0.335	0.365		0.297	0.156
ABC-1	1.19	0.848	0.58	0.884	1.12	0.561	0.303	0.345	1.11	0.832	0.546	0.381	0.632	0.505	0.321	0.391	0.298	0.214	0.179	0.201
BEN	0.691	0.637	0.589	0.445	0.628	0.524	0.493	0.476	1.02	0.783	0.896	0.956	0.382		0.295	0.233	0.275		0.281	0.258
CAL-12T	0.776	0.62	0.533	0.464	0.532	0.394	0.34	0.232	1.38	1.21	0.802	0.551	0.569	0.32	0.183	0.198	0.67	0.488	0.352	0.296
COR-L23	1.15	0.792	0.92	0.457	0.945	0.586	0.636	0.248	0.843	0.788	0.759	0.586	0.535	0.404	0.426	0.408	0.51	0.372	0.483	0.314
COR-L 105	0.338	0.312	0.311	0.349	0.463	0.377	0.46	0.419	1.16	1.06	0.803	0.664	0.357	0.345	0.34	0.264	0.476	0.458	0.408	0.307
ChaGo-K-1					1.26	0.59	0.607	0.486					0.586	0.464	0.566	0.463	0.532	0.349	0.446	0.319
EKVX	0.236	0.192	0.157	0.144	0.491	0.356	0.373	0.383	1.01	0.628	0.739	0.656	0.6	0.394	0.478	0.373	0.22	0.167	0.185	0.203
EMC-BAC-2	0.963	0.884	0.66	0.586	0.568	0.472	0.371	0.325	0.743	0.627	0.558	0.547	0.34	0.301	0.283	0.287	0.578	0.493	0.381	0.301
EPLC-272H	1.09		0.666	0.122	0.424		0.268	0.169	1.04		0.632	0.763	0.372		0.255	0.224	0.399		0.23	0.088
H3255	0.239	0.227	0.204	0.169	0.537	0.448	0.414	0.345	0.811	0.786	0.657	0.549	0.364	0.34	0.298	0.349	0.355	0.353	0.31	0.359
HARA	0.901	0.696	0.608	0.592	0.603	0.41	0.334	0.257	1.08	0.64	0.565	0.545	0.254	0.246	0.253	0.272	0.439	0.253	0.448	0.162
HCC-15	0.91	0.52	0.676	0.321	0.772	0.535	0.493	0.238	0.972	0.683	0.618	0.45	0.669	0.53	0.396	0.32	0.541	0.39	0.398	0.25
HCC-44	0.968	0.916	1.02	0.699	0.579	0.452	0.549	0.351	0.767	0.761	0.769	0.741					0.267	0.234	0.117	0.12
HCC-78	1.15	0.511	0.187	0.322	0.23	0.231	0.226	0.205	0.417	0.243	0.268	0.319	0.51	0.286	0.309	0.323	0.678	0.517	0.707	0.594
